Measured values taken from patent US12428406B2 (PMV Pharmaceuticals, Inc., priority 2019, dated 2025).

What follows are compounds tested against T1, p53 Y220C (Homo sapiens, UniProt P04637, Y220C) (assay: In vitro DNA binding activity assay (HTRF / TR-FRET): stabilization of p53 Y220C and increase of its DNA binding activity). Settings: recombinant His-tagged p53 Y220C DNA binding domain (aa 94-312), biotin-labeled consensus DNA, incubated at 27° C. or 29° C. for 60 min.
T1 construct: The recombinant protein was a truncation mutant containing only amino acids 94-312 of p53; made in house; host or cells: E. coli
Type: biochemical
How it was run: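 E. coli His-p53 Y220C + biotin consensus DNA; anti-His-APC/SA-Eu TR-FRET. SC150 vs no-compound.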

T1 sequence (P04637 94-312, change not shown): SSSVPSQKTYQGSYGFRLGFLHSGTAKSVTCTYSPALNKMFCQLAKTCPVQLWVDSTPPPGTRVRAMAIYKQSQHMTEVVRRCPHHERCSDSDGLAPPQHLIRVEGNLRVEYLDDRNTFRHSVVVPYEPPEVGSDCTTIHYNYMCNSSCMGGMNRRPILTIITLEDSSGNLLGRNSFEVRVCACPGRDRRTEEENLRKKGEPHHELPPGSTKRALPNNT

SC150 (concentration of the compound required to increase the DNA binding activity by 50%), + (+ = 0 μM ≤ SC150 < 0.05 μM):
COc1cc(S(=O)(=O)Nc2ccon2)ccc1NCC#Cc1cc2c(NC3CCS(=O)(=O)CC3)cccc2n1CC(F)(F)F [Compound 1039A, 4-[(3-{4-[(1,1-dioxo-1λ^6-thian-4-yl)amino]-1-(2,2,2-trifluoroethyl)-1H-indol-2-yl}prop-2-yn-1-yl)amino]-3-methoxy-N-(1,2-oxazol-3-yl)benzene-1-sulfonamide]
COc1cc(S(=O)(=O)Nc2cc(C)on2)ccc1NCC#Cc1cc2c(NC3CCS(=O)(=O)CC3)cccc2n1CC(F)(F)F [Compound 1040A, 4-[(3-{4-[(1,1-dioxo-1λ^6-thian-4-yl)amino]-1-(2,2,2-trifluoroethyl)-1H-indol-2-yl}prop-2-yn-1-yl)amino]-3-methoxy-N-(5-methyl-1,2-oxazol-3-yl)benzene-1-sulfonamide]
COc1cc(S(=O)(=O)NC2CCOCC2)ccc1NCC#Cc1cc2c(NC3CCS(=O)(=O)CC3)cccc2n1CC(F)(F)F [Compound 1041A, 4-[(3-{4-[(1,1-dioxo-1λ^6-thian-4-yl)amino]-1-(2,2,2-trifluoroethyl)-1H-indol-2-yl}prop-2-yn-1-yl)amino]-3-methoxy-N-(oxan-4-yl)benzene-1-sulfonamide]
COc1cc(S(=O)(=O)NCC(O)CO)ccc1NCC#Cc1cc2c(NC3CCS(=O)(=O)CC3)cccc2n1CC(F)(F)F (stereo not drawn) [Compound 1042A, N-(2,3-dihydroxypropyl)-4-[(3-{4-[(1,1-dioxo-1λ^6-thian-4-yl)amino]-1-(2,2,2-trifluoroethyl)-1 H-indol-2-yl}prop-2-yn-1-yl)amino]-3-methoxybenzene-1-sulfonamide]
COc1cc(S(=O)(=O)N(C)CCN(C)C)ccc1NCC#Cc1cc2c(NC3CCS(=O)(=O)CC3)cccc2n1CC(F)(F)F [Compound 1043A, N-[2-(dimethylamino)ethyl]-4-[(3-{4-[(1,1-dioxo-1λ^6-thian-4-yl)amino]-1-(2,2,2-trifluoroethyl)-1H-indol-2-yl}prop-2-yn-1-yl)amino]-3-methoxy-N-methylbenzene-1-sulfonamide]
COc1cc(S(=O)(=O)N(C)C)ccc1NCC#Cc1cc2c(NC3CCS(=O)(=O)CC3)cccc2n1CC(F)(F)F [Compound 1044A, 4-[(3-{4-[(1,1-dioxo-1λ^6-thian-4-yl)amino]-1-(2,2,2-trifluoroethyl)-1H-indol-2-yl}prop-2-yn-1-yl)amino]-3-methoxy-N,N-dimethylbenzene-1-sulfonamide]
COc1cc(S(=O)(=O)N2CCN(C(C)=O)CC2)ccc1NCC#Cc1cc2c(NC3CCS(=O)(=O)CC3)cccc2n1CC(F)(F)F [Compound 1045A, 4-({2-[3-({4-[(4-acetylpiperazin-1-yl)sulfonyl]-2-methoxyphenyl}amino)prop-1-yn-1-yl]-1-(2,2,2-trifluoroethyl)-1H-indol-4-yl}amino)-1λ^6-thiane-1,1-dione]
COCCN(C)S(=O)(=O)c1ccc(NCC#Cc2cc3c(NC4CCS(=O)(=O)CC4)cccc3n2CC(F)(F)F)c(OC)c1 [Compound 1046A, 4-[(3-{4-[(1,1-dioxo-1λ^6-thian-4-yl)amino]-1-(2,2,2-trifluoroethyl)-1H-indol-2-yl}prop-2-yn-1-yl)amino]-3-methoxy-N-(2-methoxyethyl)-N-methylbenzene-1-sulfonamide]
COc1cc(S(=O)(=O)N2CC3(COC3)C2)ccc1NCC#Cc1cc2c(NC3CCS(=O)(=O)CC3)cccc2n1CC(F)(F)F [Compound 1047A, 4-[(2-{3-[(2-methoxy-4-{2-oxa-6-azaspiro[3.3]heptane-6-sulfonyl}phenyl)amino]prop-1-yn-1-yl}-1-(2,2,2-trifluoroethyl)-1H-indol-4-yl)amino]-1λ^6-thiane-1,1-dione]
COc1cc(S(=O)(=O)N2CCN(C)CC2)ccc1NCC#Cc1cc2c(NC3CCS(=O)(=O)CC3)cccc2n1CC(F)(F)F [Compound 1048A, 4-({2-[3-({2-methoxy-4-[(4-methylpiperazin-1-yl)sulfonyl]phenyl}amino)prop-1-yn-1-yl]-1-(2,2,2-trifluoroethyl)-1H-indol-4-yl}amino)-1λ^6-thiane-1,1-dione]
CNC(=O)c1ccc(NCC#Cc2cc3c(NC4CCS(=O)(=O)CC4)cccc3n2CC(F)(F)F)c(OC)c1 [Compound 1049A, 4-[(3-{4-[(1,1-dioxo-1λ^6-thian-4-yl)amino]-1-(2,2,2-trifluoroethyl)-1H-indol-2-yl}prop-2-yn-1-yl)amino]-3-methoxy-N-methylbenzamide]
COCC(CNC(=O)c1ccc(NCC#Cc2cc3c(N[C@@H]4CCN(C)C[C@@H]4F)cccc3n2CC(F)(F)F)c(OC)c1)OC(=O)C(C)C (stereo partly drawn) [Compound 1055A, 1-[(4-{[3-(4-{[(3S,4R)-3-fluoro-1-methylpiperidin-4-yl]amino}-1-(2,2,2-trifluoroethyl)-1H-indol-2-yl)prop-2-yn-1-yl]amino}-3-methoxyphenyl)formamido]-3-methoxypropan-2-yl 2-methylpropanoate]
COc1cc(C(=O)NC(C)CO)ccc1NCC#Cc1cc2c(N[C@@H]3CCN(C)C[C@@H]3F)cccc2n1CC(F)(F)F (stereo partly drawn) [Compound 1056A, 4-{[3-(4-{[(3S,4R)-3-fluoro-1-methylpiperidin-4-yl]amino}-1-(2,2,2-trifluoroethyl)-1H-indol-2-yl)prop-2-yn-1-yl]amino}-N-(1-hydroxypropan-2-yl)-3-methoxybenzamide]
COc1cc(C(=O)NCC(C)O)ccc1NCC#Cc1cc2c(N[C@@H]3CCN(C)C[C@@H]3F)cccc2n1CC(F)(F)F (stereo partly drawn) [Compound 1057A, 4-{[3-(4-{[(3S,4R)-3-fluoro-1-methylpiperidin-4-yl]amino}-1-(2,2,2-trifluoroethyl)-1H-indol-2-yl)prop-2-yn-1-yl]amino}-N-(2-hydroxypropyl)-3-methoxybenzamide]
CNC(=O)c1ccc(NCC#Cc2cc3c(N[C@@H]4CCN(C)C[C@@H]4F)cccc3n2CC(F)(F)F)c(O)c1 [Compound 1058A, 4-{[3-(4-{[(3S,4R)-3-fluoro-1-methylpiperidin-4-yl]amino}-1-(2,2,2-trifluoroethyl)-1H-indol-2-yl)prop-2-yn-1-yl]amino}-3-hydroxy-N-methylbenzamide]
CCOc1cc(C(N)=O)ccc1NCC#Cc1cc2c(N[C@@H]3CCN(C)C[C@@H]3F)cccc2n1CC(F)(F)F [Compound 1059A, 3-ethoxy-4-{[3-(4-{[(3S,4R)-3-fluoro-1-methylpiperidin-4-yl]amino}-1-(2,2,2-trifluoroethyl)-1H-indol-2-yl)prop-2-yn-1-yl]amino}benzamide]
CCNC(=O)c1ccc(NCC#Cc2cc3c(N[C@@H]4CCN(C)C[C@@H]4F)cccc3n2CC(F)(F)F)c(O)c1 [Compound 1060A, N-ethyl-4-{[3-(4-{[(3S,4R)-3-fluoro-1-methylpiperidin-4-yl]amino}-1-(2,2,2-trifluoroethyl)-1H-indol-2-yl)prop-2-yn-1-yl]amino}-3-hydroxybenzamide]
COc1cc(C(=O)NCC(COC(=O)C(C)C)OC)ccc1NCC#Cc1cc2c(N[C@@H]3CCN(C)C[C@@H]3F)cccc2n1CC(F)(F)F (stereo partly drawn) [Compound 1061A, 3-[(4-{[3-(4-{[(3S,4R)-3-fluoro-1-methylpiperidin-4-yl]amino}-1-(2,2,2-trifluoroethyl)-1H-indol-2-yl)prop-2-yn-1-yl]amino}-3-methoxyphenyl)formamido]-2-methoxypropyl 2-methylpropanoate]
CCNC(=O)c1ccc(NCC#Cc2cc3c(N[C@@H]4CCNC[C@@H]4F)cccc3n2CC(F)(F)F)c(OC)c1 [Compound 1062A, N-ethyl-4-{[3-(4-{[(3S,4R)-3-fluoropiperidin-4-yl]amino}-1-(2,2,2-trifluoroethyl)-1H-indol-2-yl)prop-2-yn-1-yl]amino}-3-methoxybenzamide]
CCN1CC[C@@H](Nc2cccc3c2cc(C#CCNc2ccc(C(N)=O)cc2OC)n3CC(F)(F)F)[C@@H](F)C1 [Compound 1063A, 4-{[3-(4-{[(3S,4R)-1-ethyl-3-fluoropiperidin-4-yl]amino}-1-(2,2,2-trifluoroethyl)-1H-indol-2-yl)prop-2-yn-1-yl]amino}-3-methoxybenzamide]
COc1cc(C(=O)N(C)C)ncc1NCC#Cc1cc2c(N[C@@H]3CCN(C)C[C@@H]3F)cccc2n1CC(F)(F)F [Compound 1064A, 5-{[3-(4-{[(3S,4R)-3-fluoro-1-methylpiperidin-4-yl]amino}-1-(2,2,2-trifluoroethyl)-1H-indol-2-yl)prop-2-yn-1-yl]amino}-4-methoxy-N,N-dimethylpyridine-2-carboxamide]
